From patent publication US9006440B2, “Furopyridine derivatives” (Merck Patent GmbH, priority 2010, dated 2015)

Assays:
Format in all cases: biochemical
KDR = biological target: T1, KDR (Homo sapiens, UniProt P35968); assay: KDR enzymatic assay (Caliper LifeSciences technology)
T1 construct: purchased BPS Bioscience, CA, USA
Method: (§1) The assays described here are performed on the Caliper Life Sciences LC3000 system This technology provides data on enzyme activity via measurement of the relative amounts of phosphorylated or unphosphorylated fluorescently labelled substrate peptide at the end of an enzymatic reaction. These different states of peptide are resolved by applying a potential difference across the sample. The presence of the charged phosphate group on the product (as opposed to the substrate) causes a different peptide mobility between the two peptides. This is visualized by excitation of the fluorescent label on the substrate and product peptides and represented as peaks within the analysis software.
(§2) In order to measure inhibitor activity of kinase inhibitors on this technology, a TTP Mosquito liquid handling instrument is used to place 0.25 ul of the appropriate concentration of inhibitor in 100% DMSO (for a dose response curve calculation) into each well of a 384-well plate. To this reaction components are added to a final volume of 25 ul. The table below indicates the sequences and concentrations for the assays described in this report. Standard components are 1 mM DTT (Sigma, D0632), 1 mM MgCl2 (Sigma, M1028), 100 mM HEPES pH 7.5 (Calbiochem, 391338), 0.015% Brij-35 (Sigma, B4184).
(§3) The reaction is incubated for 90 min at 25 C, and then stopped by the addition of 70 ul of Stop buffer (100 mM HEPES pH 7.5, 0.015% Brij-35, 10 mM EDTA (Sigma, E7889)).
(§4) The plate is read on a Caliper LC 3000 in an Off-Chip mobility shift assay format, on a 12-sipper chip. Unphosphorylated substrate and phosphorylated product peptide resolve as separate peaks allowing direct measurement of percentage of conversion of substrate to product. The percent conversion can be plotted against concentration of inhibitor to produce a sigmoidal dose response curve, from which an IC50 can be calculated using GeneData Condoseo or a similar product.

Syk = biological target: T2, Syk (Homo sapiens, UniProt P43405); assay: Syk enzyme assay (SYK flash plate assay / Caliper mobility shift)
T2 construct: purchased BPS Bioscience, CA, USA
Method: The kinase assay is performed either as 384-well Flashplate assay (for e.g. Topcount measurement) or as 384-well Image-Flashplate assay (for LEADseeker measurement).
2.5 nM SYK, 400 nM Biotin-Aha-Aha-KEDPDYEWPSAKK
and 10 μM ATP (spiked with 0.3 μCi 33P-ATP/well) are incubated in a total volume of 50 μl (60 mM Hepes, 10 mM MgCl2, 1.2 mM Dithiothreitol, 0.02% Brij35, 0.1% BSA, pH 7.5) with or without test compound for 1 hours at 30° C. The reaction is stopped with 25 μl 200 mM EDTA. After 30 Min at 30° C. the liquid is removed and each well washed thrice with 100 μl 0.9% sodium chloride solution. Non-specific reaction is determined in presence of 0.1 μM Staurosporine. Radioactivity is measured with Topcount (when using Flashplates) or with LEADseeker (when using Image-Flashplates) respectively. Results (e.g. IC50-values) are calculated with program tools provided by the IT-department (e.g. Symyx Assay Explorer, Genedata Screener). Enzymatic Assays Using the Caliper LifeSciences Technology
as §1, §2, §3, §4

SRC = biological target: T3, SRC (Homo sapiens, UniProt P12931); assay: Src enzymatic assay (Caliper LifeSciences technology)
T3 construct: purchased Carna Bioscience, Kobe, Japan
T3 sequence (P12931 whole entry): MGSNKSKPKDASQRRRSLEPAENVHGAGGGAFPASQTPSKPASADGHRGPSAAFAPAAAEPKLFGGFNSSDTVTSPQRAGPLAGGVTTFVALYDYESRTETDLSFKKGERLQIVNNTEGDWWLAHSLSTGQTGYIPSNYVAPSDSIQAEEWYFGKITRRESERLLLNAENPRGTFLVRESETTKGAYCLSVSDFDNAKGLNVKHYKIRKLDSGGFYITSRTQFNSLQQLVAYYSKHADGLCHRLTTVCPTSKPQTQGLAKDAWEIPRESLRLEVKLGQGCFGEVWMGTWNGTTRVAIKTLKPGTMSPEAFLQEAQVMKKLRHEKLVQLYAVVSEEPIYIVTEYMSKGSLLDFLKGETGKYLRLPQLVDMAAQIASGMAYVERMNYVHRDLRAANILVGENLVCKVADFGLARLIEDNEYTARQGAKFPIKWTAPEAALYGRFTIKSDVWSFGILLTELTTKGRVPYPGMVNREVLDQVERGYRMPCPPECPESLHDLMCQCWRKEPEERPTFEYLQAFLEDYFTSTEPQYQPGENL
Method: as §1, §2, §3, §4

T1 sequence (P35968 20-1356): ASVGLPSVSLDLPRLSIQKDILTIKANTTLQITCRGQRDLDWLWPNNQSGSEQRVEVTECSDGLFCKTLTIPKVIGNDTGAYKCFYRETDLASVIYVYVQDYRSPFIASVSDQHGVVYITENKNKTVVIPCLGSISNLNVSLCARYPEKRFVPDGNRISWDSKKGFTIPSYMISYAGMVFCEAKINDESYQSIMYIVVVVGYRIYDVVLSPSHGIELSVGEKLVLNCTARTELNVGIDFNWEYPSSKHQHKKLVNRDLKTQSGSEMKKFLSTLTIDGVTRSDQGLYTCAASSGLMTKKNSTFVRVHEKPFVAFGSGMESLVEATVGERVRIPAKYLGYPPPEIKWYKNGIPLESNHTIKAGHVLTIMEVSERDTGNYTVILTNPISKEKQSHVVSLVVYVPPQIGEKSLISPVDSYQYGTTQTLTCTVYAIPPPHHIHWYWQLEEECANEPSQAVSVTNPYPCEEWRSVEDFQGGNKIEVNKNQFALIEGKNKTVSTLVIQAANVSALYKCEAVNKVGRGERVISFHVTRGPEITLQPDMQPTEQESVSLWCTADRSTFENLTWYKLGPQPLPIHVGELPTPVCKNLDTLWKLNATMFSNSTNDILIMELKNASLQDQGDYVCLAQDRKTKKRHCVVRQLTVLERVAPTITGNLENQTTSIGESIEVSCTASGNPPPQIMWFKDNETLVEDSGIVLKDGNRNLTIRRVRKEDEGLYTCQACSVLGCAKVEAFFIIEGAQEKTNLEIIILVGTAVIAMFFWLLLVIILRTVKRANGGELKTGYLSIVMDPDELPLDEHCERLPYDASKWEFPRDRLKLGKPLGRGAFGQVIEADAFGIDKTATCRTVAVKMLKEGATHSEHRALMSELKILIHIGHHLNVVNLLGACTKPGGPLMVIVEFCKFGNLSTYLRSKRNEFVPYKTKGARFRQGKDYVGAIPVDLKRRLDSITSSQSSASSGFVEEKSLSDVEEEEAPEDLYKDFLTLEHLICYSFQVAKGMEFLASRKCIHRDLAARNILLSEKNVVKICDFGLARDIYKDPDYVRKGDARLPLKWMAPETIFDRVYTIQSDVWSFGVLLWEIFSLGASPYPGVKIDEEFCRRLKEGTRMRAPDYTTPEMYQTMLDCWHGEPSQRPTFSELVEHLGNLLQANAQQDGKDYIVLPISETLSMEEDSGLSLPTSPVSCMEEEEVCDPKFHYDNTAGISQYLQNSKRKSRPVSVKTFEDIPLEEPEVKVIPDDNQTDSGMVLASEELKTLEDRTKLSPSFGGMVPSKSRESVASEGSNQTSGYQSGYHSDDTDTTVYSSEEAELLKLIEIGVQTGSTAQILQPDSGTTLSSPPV

Compound	IC50 (KDR) [µM]	IC50 (Syk) [µM]	IC50 (SRC) [µM]
CNC(=O)c1ccc(-c2ccnc3cc(-c4cc(OC)c(OC)c(OC)c4)oc23)cc1 [Compound A13, N-Methyl-4-[2-(3,4,5-trimethoxy-phenyl)-furo[3,2-b]pyridin-7-yl]-benzamide]	0.3 to 3	< 0.3	–
COC(=O)c1cccc(-c2cc3nccc(-c4ccccc4)c3o2)c1 [Compound A19, 3-(7-Phenyl-furo[3,2-b]pyridin-2-yl)-benzoic acid methyl ester]	3 to 50	3 to 50	–
COc1cc(-c2cc3nccc(-c4cccc5[nH]ccc45)c3o2)cc(OC)c1OC [Compound A20, 7-(1H-Indol-4-yl)-2-(3,4,5-trimethoxy-phenyl)-furo[3,2-b]pyridine]	3 to 50	< 0.3	0.3 to 3
COc1ccc(-c2ccnc3cc(-c4cc(OC)c(OC)c(OC)c4)oc23)c(OC)c1 [Compound A28, 7-(2,4-Dimethoxy-phenyl)-2-(3,4,5-trimethoxy-phenyl)-furo[3,2-b]pyridine]	0.3 to 3	< 0.3	–
COc1cc(-c2ccnc3cc(-c4cc(OC)c(OC)c(OC)c4)oc23)ccn1 [Compound A29, 7-(2-Methoxy-pyridin-4-yl)-2-(3,4,5-trimethoxy-phenyl)-furo[3,2-b]pyridine]	0.3 to 3	< 0.3	–
COc1cc(-c2cc3nccc(-c4cccc(O)c4)c3o2)cc(OC)c1OC [Compound A36, 3-[2-(3,4,5-Trimethoxy-phenyl)-furo[3,2-b]pyridin-7-yl]-phenol]	3 to 50	< 0.3	–
COc1cc(-c2cc3nccc(-c4cccc(OCCN)c4)c3o2)cc(OC)c1OC [Compound A38, 2-{3-[2-(3,4,5-Trimethoxy-phenyl)-furo[3,2-b]pyridin-7-yl]-phenoxy}-ethylamine]	0.3 to 3	< 0.3	3 to 50
COc1cc(-c2cc3nccc(-c4cccc(CN)c4)c3o2)cc(OC)c1OC [Compound A51, 3-[2-(3,4,5-Trimethoxy-phenyl)-furo[3,2-b]pyridin-7-yl]-benzylamine]	0.3 to 3	< 0.3	3 to 50
COc1cc(-c2cc3nccc(-c4cccc(CNC(C)=O)c4)c3o2)cc(OC)c1OC [Compound A52, N-[[3-[2-(3,4,5-trimethoxyphenyl)furo[3,2-b]pyridin-7-yl]phenyl]methyl]-acetamide]	3 to 50	< 0.3	3 to 50
COc1cc(-c2cc3nccc(-c4ccc(CN)cc4)c3o2)cc(OC)c1OC [Compound A53, 4-[2-(3,4,5-Trimethoxy-phenyl)-furo[3,2-b]pyridin-7-yl]-benzylamine]	0.3 to 3	< 0.3	–
COc1cc(-c2cc3nccc(-c4cccc(C(=O)NC5CCNC5)c4)c3o2)cc(OC)c1OC (stereo not shown) [Compound A66, N-pyrrolidin-3-yl-3-[2-(3,4,5-trimethoxyphenyl)furo[3,2-b]pyridin-7-yl]benzamide]	–	< 0.3	0.3 to 3
COc1cc(-c2cc3nccc(-c4cccc(C(=O)N5CCC(N)C5)c4)c3o2)cc(OC)c1OC (stereo not shown) [Compound A67, (3-aminopyrrolidin-1-yl)-[3-[2-(3,4,5-trimethoxyphenyl)furo[3,2-b]pyridin-7-yl]phenyl]methanone]	–	0.3 to 3	0.3 to 3
COc1cc(-c2cc3nccc(Nc4ccc5c(c4)NC(=O)C(F)(F)O5)c3o2)cc(OC)c1OC [Compound B10, 2,2-Difluoro-6-[2-(3,4,5-trimethoxy-phenyl)-furo[3,2-b]pyridin-7-ylamino]-4H-benzo[1,4]oxazin-3-one]	< 0.3	0.3 to 3	–
COc1cc(-c2cc3nccc(Nc4ccc(Sc5nccn5C)c(Cl)c4)c3o2)cc(OC)c1OC [Compound B16, [3-Chloro-4-(1-methyl-1H-imidazol-2-ylsulfanyl)-phenyl]-[2-(3,4,5-trimethoxy-phenyl)-furo[3,2-b]pyridin-7-yl]-amine]	3 to 50	3 to 50	3 to 50
Cc1c(Nc2ccnc3cc(-c4ccccc4)oc23)ccc2[nH]ccc12 [Compound B21, (4-Methyl-1H-indol-5-yl)-(2-phenyl-furo[3,2-b]pyridin-7-yl)-amine]	0.3 to 3	0.3 to 3	< 0.3
COc1cc(-c2cc3nccc(-c4cc(OC)c(OC)c(OC)c4)c3o2)cc(OC)c1OC [Compound B24, 2,7-Bis-(3,4,5-trimethoxy-phenyl)-furo[3,2-b]pyridine]	3 to 50	< 0.3	3 to 50
COc1cccc(-c2cc3nccc(-c4cccc(OC)c4)c3o2)c1 [Compound B43, 2,7-Bis-(3-methoxy-phenyl)-furo[3,2-b]pyridine]	3 to 50	3 to 50	–
CC(C)(O)c1ccc(-c2cc3nccc(-c4ccc(C(C)(C)O)cc4)c3o2)cc1 [Compound B45, 2-(4-{2-[4-(1-Hydroxy-1-methyl-ethyl)-phenyl]-furo[3,2-b]pyridin-7-yl}-phenyl)-propan-2-ol]	0.3 to 3	0.3 to 3	–
COc1cc(-c2cc3nccc(-c4cccc(NC(C)=O)c4)c3o2)cc(OC)c1OC [Compound B72, N-(3-(2-(3,4,5-Trimethoxyphenyl)furo[3,2-b]pyridin-7-yl)phenyl)acetamide]	–	0.3 to 3	3 to 50
COc1cc(-c2cc3nccc(-c4cccc(C(=O)NCC5CCCN5)c4)c3o2)cc(OC)c1OC (stereo not shown) [Compound C11]	–	< 0.3	3 to 50

Compound	IC50 (KDR) [µM]	IC50 (Syk) [µM]	IC50 (SRC) [µM]
Cn1cc(-c2ccnc3cc(-c4ccc5c(c4)OCCO5)oc23)cn1 [Compound C17]	0.3 to 3	0.3 to 3	–
Cn1cc(-c2ccnc3cc(-c4ccc5[nH]ccc5c4)oc23)cn1 [Compound C18]	0.3 to 3	0.3 to 3	–
Cn1cc(-c2ccnc3cc(-c4ccc5cc[nH]c5c4)oc23)cn1 [Compound C19]	3 to 50	< 0.3	–
Cn1cc(-c2ccnc3cc(-c4ccc(N5CCOCC5)nc4)oc23)cn1 [Compound C24]	0.3 to 3	0.3 to 3	–
O=C(Nc1cccc(-c2cc3nccc(-c4ccccc4)c3o2)c1)[C@@H]1CCCN1 [Compound C31]	0.3 to 3	0.3 to 3	–
COc1ccc(-c2cc3nccc(-c4cnn(C)c4)c3o2)cc1 [Compound C33]	0.3 to 3	0.3 to 3	–
Cn1cc(-c2ccnc3cc(-c4ccc(S(C)(=O)=O)cc4)oc23)cn1 [Compound C34]	3 to 50	0.3 to 3	–
Cn1cc(-c2ccnc3cc(-c4ccc(OCC(O)CN5CCOCC5)cc4)oc23)cn1 (stereo not shown) [Compound C37]	0.3 to 3	0.3 to 3	–
CC(C)c1cccc(-c2cc3nccc(-c4cnn(C)c4)c3o2)c1 [Compound C45]	3 to 50	0.3 to 3	–
Cn1cc(-c2ccnc3cc(-c4ccc(N5CCOCC5)cc4)oc23)cn1 [Compound C49]	0.3 to 3	0.3 to 3	–
Cn1cc(-c2ccnc3cc(-c4ccc(CO)cc4)oc23)cn1 [Compound C59]	0.3 to 3	0.3 to 3	–
COc1cc(-c2cc3nccc(-c4cnn(C)c4)c3o2)ccc1OCCNC(=O)OC(C)(C)C [Compound C62]	0.3 to 3	0.3 to 3	–
COc1cc(-c2cc3nccc(C4=CCOCC4)c3o2)cc(OC)c1OC [Compound C68]	< 0.3	0.3 to 3	–
Cn1cc(-c2ccnc3cc(-c4ccc5cnn(C)c5c4)oc23)cn1 [Compound C98]	3 to 50	< 0.3	–
COc1cc(-c2cc3nccc(-c4cccc(S(C)(=O)=O)c4)c3o2)cc(OC)c1OC [Compound C110]	0.3 to 3	< 0.3	–
COc1cc(-c2cc3nccc(-c4c(F)cccc4OC)c3o2)cc(OC)c1OC [Compound C119]	–	< 0.3	3 to 50
COc1ccc(OC)c(-c2cc3nccc(-c4cnn(C)c4)c3o2)c1 [Compound C140]	–	< 0.3	0.3 to 3
COc1cc(-c2cc3nccc(-c4cc(O)cc(C(=O)NCCN)c4)c3o2)cc(OC)c1OC [Compound C149]	–	< 0.3	0.3 to 3
COc1cc(C(=O)N[C@@H]2CCCC[C@@H]2N)cc(-c2ccnc3cc(-c4cc(OC)c(OC)c(OC)c4)oc23)c1 [Compound C170]	–	< 0.3	< 0.3
